Measured values reported in patent US20080300280A1, “Cyanobenzene Compounds for Combating Animal Pests” (priority 2005, published 2008).
Where two headings read alike, the source gives them in different places.

What was measured:
[1] = tested on: Cotton Aphid (aphis gossypii), mixed life stages; assay: Cotton aphid (Aphis gossypii), mixed life stages, leaf-dip test on cotton plants; format: in vivo; conditions: 120 h, read-out: mortality of cotton aphid in comparison with untreated controls
Experimental: (§1) The active compounds were formulated in a mixture of 50 vol.-% acetone:50 vol.-% water. A nonionic surfactant (Kinetic®) was included in the solution at a volume of 0.01% v/v.
(§2) In the following tests, the formulated solutions of the active compounds were diluted to an active ingredient concentration of 300 ppm and the diluted solutions were applied in the below mentioned tests.
II.1 Cotton Aphid (aphis gossypii), Mixed Life Stages
Cotton plants at the cotyledon stage were infested prior to treatment by placing a heavily infested leaf from the main aphid colony on top of each cotyledon. The aphids were allowed to transfer overnight and the host leaf was removed. The infested cotyledons were then dipped and agitated in the test solution for 3 seconds and allowed to dry in a fume hood. Test plants were maintained under fluorescent lighting in a 24-hr photoperiod at 25° C. and 20-40% relative humidity. Aphid mortality on the treated plants, relative to mortality on untreated check plants, was determined after 5 days.

Bean Aphid (Aphis fabae) = assay: Bean aphid (Aphis fabae), plant-dip test on nasturtium plants; format: in vivo; conditions: 72 h, read-out: mortality of bean aphid in comparison with untreated controls
Experimental: as §1, §2
11.3 Bean Aphid (Aphis fabae)
Nasturtium plants grown in Metro mix in the 1st leaf-pair stage (variety ‘Mixed Jewel’) were infested with approximately 2-30 laboratory-reared aphids by placing infested cut plants on top of the test plants. The cut plants were removed after 24 hr. Each plant was dipped into the test solution to provide complete coverage of the foliage, stem, protruding seed surface and surrounding cube surface and allowed to dry in the fume hood. The treated plants were kept at about 25° C. with continuous fluorescent light. Aphid mortality is determined after 3 days.

[2] = tested on: Green Peach Aphid (Myzus persicae), mixed life stages; assay: Green peach aphid (Myzus persicae), mixed life stages, leaf-dip test on bell pepper plants; format: in vivo; conditions: 120 h, read-out: mortality of green peach aphid in comparison with untreated controls
Experimental: as §1, §2
II.2 Green Peach Aphid (Myzus persicae), Mixed Life Stages
Bell pepper plants at the first true-leaf stage were infested prior to treatment by placing heavily infested leaves from the main aphid colony on top of the treatment plants. The aphids were allowed to transfer overnight to accomplish an infestation of 30-40 aphids per plant and the host leaves were removed. The infested leaves of the test plants were then dipped and agitated in the test solution for 3 seconds and allowed to dry in a fume hood. Test plants were maintained under fluorescent lighting in a 24-hr photoperiod at 25° C. and 20-40% relative humidity. Aphid mortality on the treated plants, relative to mortality on untreated check plants, was determined after 5 days.

[3] = 300 ppm, infested cotton cotyledons dipped 3 seconds, after 5 days
[4] = 300 ppm, infested nasturtium plants dipped, after 3 days
[5] = 300 ppm, infested bell pepper leaves dipped 3 seconds, after 5 days

| SMILES | mortality at 300 ppm [1, 3] | mortality at 300 ppm (Bean Aphid (Aphis fabae); [4]) | mortality at 300 ppm [2, 5] | further results |
| --- | --- | --- | --- | --- |
| C=CCOC(=O)N(CC)S(=O)(=O)c1cccc(C)c1C#N [Example 27] |  |  |  | mortality at 300 ppm [1]: ≥ 86%; mortality at 300 ppm (Bean Aphid (Aphis fabae)): ≥ 86%; mortality at 300 ppm [2]: ≥ 86% |
| CCN(C(C)=O)S(=O)(=O)c1cccc(OC(F)F)c1C#N [Example 15] | ≥ 86% | ≥ 86% | ≥ 86% |  |
| CCC(C)NC(=O)N(CC)S(=O)(=O)c1cccc(C)c1C#N (centres unmarked) [Example 24] | ≥ 86% |  |  |  |
| Cc1cccc(S(=O)(=O)NC(=O)OCc2ccccc2)c1C#N [Example 28, N-(Benzyloxycarbonyl)-2-cyano-3-methyl-benzenesulfonamide] |  |  |  | mortality at 300 ppm [1]: ≥ 86%; mortality at 300 ppm [2]: ≥ 86% |
| N#Cc1c(OC(F)F)cccc1S(=O)(=O)N=S1CCCC1 [Example 39] | ≥ 86% |  | ≥ 86% |  |
| CCO/C(=N\S(=O)(=O)c1cccc(C)c1C#N)NC(C)(C)C [Example 30] |  | ≥ 86% |  |  |
| CCNC(=O)N(CC)S(=O)(=O)c1cccc(C)c1C#N [Example 21] | ≥ 86% | ≥ 86% | ≥ 86% |  |
| CCO/C(=N\S(=O)(=O)c1cccc(C)c1C#N)NC(C)C [Example 29, N-(Isopropylamino-ethoxy-methylene)-2-cyano-3-methyl-benzenesulfonamide] |  |  |  | melting point: 139 to 142 °C |
| CC(=O)OCc1ccn(S(=O)(=O)c2cccc(C)c2C#N)c1 [Example 44] | ≥ 86% | ≥ 86% | ≥ 86% |  |
| Cc1cccc(S(=O)(=O)n2ccc(Br)c2)c1C#N [Example 45, 2-Methyl-6-(3-bromo-pyrrole-1-sulfonyl)-benzonitrile] | ≥ 86% |  | ≥ 86% |  |
| Cc1cccc(S(=O)(=O)n2cccc2)c1C#N [Example 41, 2-Methyl-6-(pyrrole-1-sulfonyl)-benzonitrile] | ≥ 86% | ≥ 86% | ≥ 86% |  |
| C/C(=N\S(=O)(=O)c1cccc(C)c1C#N)C(C)(C)C [Example 37, 2-Cyano-3-methyl-N-(1,2,2-trimethyl-propylidene)-benzenesulfonamide] | ≥ 86% | ≥ 86% | ≥ 86% |  |
| CCOC(=NS(=O)(=O)c1cccc(OC(F)F)c1C#N)OCC [Example 33] | ≥ 86% | ≥ 86% | ≥ 86% |  |
| N#Cc1c(OC(F)F)cccc1S(=O)(=O)n1cccc1 [Example 42] | ≥ 86% | ≥ 86% | ≥ 86% |  |
| COC(=NS(=O)(=O)c1cccc(C)c1C#N)OC [Example 32, 2-Cyano-N-dimethoxymethylene-3-methyl-benzenesulfonamide] | ≥ 86% | ≥ 86% |  |  |
| C=CC(=O)N(CC)S(=O)(=O)c1cccc(C)c1C#N [Example 10] | ≥ 86% |  |  |  |
| CO/C(C)=N\S(=O)(=O)c1cccc(OC(F)F)c1C#N [Example 36] | ≥ 86% | ≥ 86% | ≥ 86% |  |
| CCN(C(C)=O)S(=O)(=O)c1c(F)ccc(OC)c1C#N [Example 16] | ≥ 86% |  | ≥ 86% |  |
| Cc1cccc(S(=O)(=O)n2cccn2)c1C#N [Example 46, 2-Methyl-6-(pyrazole-1-sulfonyl)-benzonitrile] |  |  |  | melting point: 99 to 104 °C |
| Cc1cccc(S(=O)(=O)/N=C/N(C)C)c1C#N [Example 35, 2-Cyano-3-methyl-N-dimethylaminomethylene-benzenesulfonamide] | ≥ 86% | ≥ 86% | ≥ 86% |  |
| CC(=O)N(C(C)C)S(=O)(=O)c1cccc(C)c1C#N [Example 9] | ≥ 86% |  | ≥ 86% |  |
| CO/C(C)=N\S(=O)(=O)c1cccc(C)c1C#N [Example 34, 2-Cyano-N-(1-methoxyethylidene)-3-methyl-benzenesulfonamide] | ≥ 86% |  | ≥ 86% |  |
| CCN(C(=O)Oc1ccccc1)S(=O)(=O)c1cccc(C)c1C#N [Example 26] |  |  |  | mortality at 300 ppm [1]: ≥ 86%; mortality at 300 ppm (Bean Aphid (Aphis fabae)): ≥ 86% |

| SMILES | mortality at 300 ppm [1, 3] | mortality at 300 ppm (Bean Aphid (Aphis fabae); [4]) | mortality at 300 ppm [2, 5] | further results |
| --- | --- | --- | --- | --- |
| CCN(C(C)=O)S(=O)(=O)c1cccc(C)c1C#N [Example 2, N-Acetyl-N-ethyl-2-cyano-3-methyl-benzene-sulfonamide] | ≥ 86% | ≥ 86% | ≥ 86% |  |
| Cc1cccc(S(=O)(=O)N2CCCC2=O)c1C#N [Example 18, 2-Methyl-6-(2-oxo-pyrrolidine-1-sulfonyl)benzonitrile] | ≥ 86% | ≥ 86% |  |  |
| Cc1cccc(S(=O)(=O)n2ccc(CO)c2)c1C#N [Example 43] | ≥ 86% |  | ≥ 86% |  |
| Cc1cccc(S(=O)(=O)N2CCCCC2=O)c1C#N [Example 19] | ≥ 86% |  |  |  |
| CCC(=O)N(CC)S(=O)(=O)c1cccc(C)c1C#N [Example 5] | ≥ 86% | ≥ 86% | ≥ 86% |  |
| CCN(C(=O)c1ccccc1)S(=O)(=O)c1cccc(C)c1C#N [Example 17] | ≥ 86% | ≥ 86% |  |  |
| C#CCN(C(C)=O)S(=O)(=O)c1cccc(C)c1C#N [Example 7] | ≥ 86% | ≥ 86% | ≥ 86% |  |
| Cc1cccc(S(=O)(=O)n2cncn2)c1C#N [Example 47, 2-Methyl-6-([1.2.4]-triazole-1-sulfonyl)-benzonitrile] |  |  |  | melting point: 142 to 144 °C |
| Cc1cccc(S(=O)(=O)N(C(=O)C(F)(F)F)C(C)C)c1C#N [Example 12] | ≥ 86% | ≥ 86% | ≥ 86% |  |
| Cc1cccc(S(=O)(=O)n2ccnc2)c1C#N [Example 48, 2-Methyl-6-(imidazole-1-sulfonyl)-benzonitrile] | ≥ 86% |  | ≥ 86% |  |
| CCN(C(=O)Nc1ccccc1)S(=O)(=O)c1cccc(C)c1C#N [Example 22, N-Ethyl-N-(2-cyano-3-methyl-benzenesulfonyl)-N′-phenyl urea] | ≥ 86% |  | ≥ 86% |  |
| CC(=O)NS(=O)(=O)c1cccc(C)c1C#N [Example 1] | ≥ 86% |  | ≥ 86% |  |
| Cc1cccc(S(=O)(=O)N=S(C(C)C)C(C)C)c1C#N [Example 40] | ≥ 86% |  | ≥ 86% |  |
| CCN(C(=O)C(F)(F)F)S(=O)(=O)c1cccc(C)c1C#N [Example 6] | ≥ 86% | ≥ 86% | ≥ 86% |  |
| CCN(C(=O)NC(C)C)S(=O)(=O)c1cccc(C)c1C#N [Example 23] | ≥ 86% | ≥ 86% | ≥ 86% |  |
| CCC(=O)NS(=O)(=O)c1cccc(C)c1C#N [Example 13] | ≥ 86% | ≥ 86% | ≥ 86% |  |
| Cc1cccc(S(=O)(=O)NC(=O)Oc2ccccc2)c1C#N [Example 25] |  |  |  | mortality at 300 ppm [1]: ≥ 86%; mortality at 300 ppm (Bean Aphid (Aphis fabae)): ≥ 86% |
| Cc1cccc(S(=O)(=O)N=S2CCCC2)c1C#N [Example 38, 2-Cyano-3-methyl-N-(tetrahydro-thiphophen-1-ylidene)benzenesulfonamide] | ≥ 86% | ≥ 86% | ≥ 86% |  |
| C#CCN(C(=O)C(F)(F)F)S(=O)(=O)c1cccc(C)c1C#N [Example 11] | ≥ 86% | ≥ 86% | ≥ 86% |  |
| C#CCN(C(=O)CC)S(=O)(=O)c1cccc(C)c1C#N [Example 8] | ≥ 86% | ≥ 86% | ≥ 86% |  |
| COc1cccc(S(=O)(=O)N(OC)C(C)=O)c1C#N [Example 3] | ≥ 86% |  | ≥ 86% |  |
| CCOC(=NS(=O)(=O)c1cccc(C)c1C#N)OCC [Example 31] | ≥ 86% | ≥ 86% | ≥ 86% |  |
| Cc1cccc(S(=O)(=O)NC(=O)C(C)C)c1C#N [Example 14] | ≥ 86% | ≥ 86% | ≥ 86% |  |
